Test results: article PMC12669672, “Structural insights into selective and dual antagonism of EP2 and EP4 prostaglandin receptors” (The EMBO Journal, 2025)
“And” between values parts separate entries of the source, which are not always exact repeats. Equal entries are not always repeated. Where two headings read alike, the source gives them in different places.

Assays:
Assay type in all cases: cell-based
EP2 S308A = biological target: T1, EP2 S308A (Homo sapiens, UniProt P43116, S308A); test: GloSensor cAMP assay, antagonism of PGE2-induced cAMP; settings: for cAMP activity (∆pIC50 from EP2 WT): TG6-129, S308A
T1 construct: The full-length EP2 or EP4 was cloned into the pcDNA3.1 vector; FLAG (N); expressed in transfected cells; host or cells: AD293 cells
T1 sequence (P43116 whole entry S308A): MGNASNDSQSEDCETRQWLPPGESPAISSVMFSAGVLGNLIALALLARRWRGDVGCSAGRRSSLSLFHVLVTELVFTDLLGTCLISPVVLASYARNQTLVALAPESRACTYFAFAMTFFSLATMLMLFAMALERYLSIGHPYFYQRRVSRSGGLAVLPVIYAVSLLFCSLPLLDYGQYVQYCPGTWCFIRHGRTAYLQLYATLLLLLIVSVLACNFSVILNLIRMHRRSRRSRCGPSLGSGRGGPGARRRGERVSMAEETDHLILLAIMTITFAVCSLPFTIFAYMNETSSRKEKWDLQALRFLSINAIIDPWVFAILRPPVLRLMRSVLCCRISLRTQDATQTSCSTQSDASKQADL
Summary of the method: (§1)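 Read-out is GloSensor luminescence from AD293 cells co-expressing FLAG-tagged EP2 variant and GloSensor22F biosensor, transfected at a 1:1 plasmid ratio. Cells were plated at 4000 per well in CO2-independent medium containing 2% cAMP reagent, incubated 1 h at 37 °C, then read.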

EP4 V72A = biological target: T2, EP4 V72A (Homo sapiens, UniProt P35408, V72A); test: as above
T2 construct: The full-length EP2 or EP4 was cloned into the pcDNA3.1 vector; FLAG (N); expressed in transfected cells; host or cells: AD293 cells
T2 sequence (P35408 whole entry V72A): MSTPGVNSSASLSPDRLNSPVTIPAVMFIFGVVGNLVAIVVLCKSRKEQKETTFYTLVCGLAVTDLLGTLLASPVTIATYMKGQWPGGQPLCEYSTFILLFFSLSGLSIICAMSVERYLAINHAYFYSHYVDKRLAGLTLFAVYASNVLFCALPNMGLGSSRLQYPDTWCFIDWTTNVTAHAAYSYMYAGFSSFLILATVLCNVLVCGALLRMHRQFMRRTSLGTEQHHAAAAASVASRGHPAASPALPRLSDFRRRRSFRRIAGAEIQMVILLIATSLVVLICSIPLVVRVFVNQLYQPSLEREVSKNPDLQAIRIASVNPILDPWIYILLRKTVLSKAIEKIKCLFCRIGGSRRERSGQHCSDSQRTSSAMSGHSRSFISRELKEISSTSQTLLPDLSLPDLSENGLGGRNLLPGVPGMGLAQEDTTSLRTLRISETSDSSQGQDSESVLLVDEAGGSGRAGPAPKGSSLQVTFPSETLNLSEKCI

EP2 T82A = biological target: T3, EP2 T82A (Homo sapiens, UniProt P43116, T82A); test: as above; settings: for cAMP activity (∆pIC50 from EP2 WT): TG6-129, T82A
T3 construct: The full-length EP2 or EP4 was cloned into the pcDNA3.1 vector; FLAG (N); expressed in transfected cells; host or cells: AD293 cells
T3 sequence (P43116 whole entry T82A): as the sequence (P43116 whole entry S308A) above, with T82A, A308S counted along it
Summary of the method: as §1

[1] = biological target: T4, constitutively active EP2 M116A (Homo sapiens, UniProt P43116, M116A); test: GloSensor cAMP assay, inhibition of constitutive activity
T4 construct: The full-length EP2 or EP4 was cloned into the pcDNA3.1 vector; FLAG (N); expressed in transfected cells; host or cells: AD293 cells
T4 sequence (P43116 whole entry M116A): as the sequence (P43116 whole entry S308A) above, with M116A, A308S counted along it
Summary of the method: as §1

[2] = biological target: T5, constitutively active EP4 V320A (Homo sapiens, UniProt P35408, V320A); test: as above
T5 construct: The full-length EP2 or EP4 was cloned into the pcDNA3.1 vector (Invitrogen), incorporating an N-terminal FLAG tag; expressed in transfected cells; host or cells: AD293
T5 sequence (P35408 whole entry V320A): as the sequence (P35408 whole entry V72A) above, with A72V, V320A counted along it

[3] = biological target: T6, constitutively active EP2 S86A (Homo sapiens, UniProt P43116, S86A); test: as above
T6 construct: The full-length EP2 or EP4 was cloned into the pcDNA3.1 vector; FLAG (N); expressed in transfected cells; host or cells: AD293 cells
T6 sequence (P43116 whole entry S86A): as the sequence (P43116 whole entry S308A) above, with S86A, A308S counted along it
Summary of the method: as §1

[4] = biological target: T7, constitutively active EP2 W186A (Homo sapiens, UniProt P43116, W186A); test: as above
T7 construct: The full-length EP2 or EP4 was cloned into the pcDNA3.1 vector; FLAG (N); expressed in transfected cells; host or cells: AD293 cells
T7 sequence (P43116 whole entry W186A): as the sequence (P43116 whole entry S308A) above, with W186A, A308S counted along it
Summary of the method: as §1

[5] = biological target: T8, constitutively active EP2 T82A (Homo sapiens, UniProt P43116, T82A); test: as above
T8 construct: The full-length EP2 or EP4 was cloned into the pcDNA3.1 vector; FLAG (N); expressed in transfected cells; host or cells: AD293 cells
T8 sequence (P43116 whole entry T82A): as the sequence (P43116 whole entry S308A) above, with T82A, A308S counted along it
Summary of the method: as §1

[6] = 1 h, TG6-129 log([M]) -11, read-out: % cAMP activity (normalized to WT)
[7] = no PGE2, pIC50 mutant - pIC50 WT, mean

With `CCc1nnc(NS(=O)(=O)c2ccc(NC(=S)NC(=O)/C=C/c3ccc(F)cc3)cc2)s1` [TG6-129] the remaining activity at 10 pM (EP2 S308A; [6]) was 110%, the “cAMP activity (∆pIC50 from EP2 WT)” value (EP2 S308A; Mean) was -0.534 and the “cAMP activity (∆pIC50 from EP2 WT)” value (EP2 S308A; single experiments 1st-3rd) was -0.496 and -0.568 and -0.537. The IC50 (EP4 V72A) was 18200 nM, the remaining activity at 100 µM (EP4 V72A; 1 h, TG6-129 log([M]) -4.00, read-out: % cAMP activity (normalized to WT)) was 12.5% and the remaining activity at […] (EP4 V72A; 1 h, TG6-129 log([M]) -4.70, read-out: % cAMP activity (normalized to WT)) was 22.1%. The remaining activity at […] (EP4 V72A; 1 h, TG6-129 log([M]) -5.40, read-out: % cAMP activity (normalized to WT)) was 49.5%, the remaining activity at […] (EP4 V72A; 1 h, TG6-129 log([M]) -6.10, read-out: % cAMP activity (normalized to WT)) was 51.9% and the remaining activity at 0.1585 µM (EP4 V72A; 1 h, TG6-129 log([M]) -6.80, read-out: % cAMP activity (normalized to WT)) was 46%. It also gave a remaining activity at 0.03236 µM (EP4 V72A; 1 h, TG6-129 log([M]) -7.49, read-out: % cAMP activity (normalized to WT)) of 55.5%, a remaining activity at 0.006457 µM (EP4 V72A; 1 h, TG6-129 log([M]) -8.19, read-out: % cAMP activity (normalized to WT)) of 65.3% and a remaining activity at 0.001288 µM (EP4 V72A; 1 h, TG6-129 log([M]) -8.89, read-out: % cAMP activity (normalized to WT)) of 49%. The “cAMP activity (∆pIC50 from EP4 WT)” value (EP4 V72A; TG6-129, V72A, Mean) was -0.291, the IC50 (EP2 T82A) was 74.1 nM and the remaining activity at 0.01 µM (EP2 T82A; 1 h, TG6-129 log([M]) -8, read-out: % cAMP activity (normalized to WT)) was 28.8%. For the same molecule, the remaining activity at 0.001 µM (EP2 T82A; 1 h, TG6-129 log([M]) -9, read-out: % cAMP activity (normalized to WT)) was 38.9%, the remaining activity at 10 pM (EP2 T82A; [6]) was 40.1% and the remaining activity at 1 pM (EP2 T82A; 1 h, TG6-129 log([M]) -12, read-out: % cAMP activity (normalized to WT)) was 33.8%. For the same molecule, the “cAMP activity (∆pIC50 from EP2 WT)” value (EP2 T82A; Mean) was -0.177, the “cAMP activity (∆pIC50 from EP2 WT)” value (EP2 T82A; single experiments 1st-3rd) was -0.228 and -0.186 and -0.118 and the IC50 [1] was 490 nM. For the same molecule, the remaining activity at 1 µM ([1]; 1 h, TG6-129 log([M]) -6, EP2-M116A, read-out: % cAMP activity (normalized to WT)) was 94.8%, the “TG6-129 cAMP activity (∆pIC50 from EP2 WT), Mean” value ([1]; M116A, Mean) was -0.618 and the “TG6-129 cAMP activity (∆pIC50 from EP2 WT)” value ([1]; M116A, single experiments 1st-3rd) was -0.597 and -0.614 and -0.642. For the same molecule, the ΔpIC50 [1, 7] was -0.62 ± 0.01, the IC50 [2] was 6760 nM and the remaining activity at 100 µM ([2]; 1 h, TG6-129 log([M]) -4.00, EP4-V320A, read-out: % cAMP activity (normalized to WT)) was 8.24%. For the same molecule, the remaining activity at 20 µM ([2]; 1 h, TG6-129 log([M]) -4.70, EP4-V320A, read-out: % cAMP activity (normalized to WT)) was 16%, the remaining activity at […] ([2]; 1 h, TG6-129 log([M]) -5.40, EP4-V320A, read-out: % cAMP activity (normalized to WT)) was 41.7% and the remaining activity at […] ([2]; 1 h, TG6-129 log([M]) -6.10, EP4-V320A, read-out: % cAMP activity (normalized to WT)) was 57.4%. It also gave a remaining activity at […] ([2]; 1 h, TG6-129 log([M]) -6.80, EP4-V320A, read-out: % cAMP activity (normalized to WT)) of 59.5%, a remaining activity at 0.0324 µM ([2]; 1 h, TG6-129 log([M]) -7.49, EP4-V320A, read-out: % cAMP activity (normalized to WT)) of 49.7% and a remaining activity at 0.00646 µM ([2]; 1 h, TG6-129 log([M]) -8.19, EP4-V320A, read-out: % cAMP activity (normalized to WT)) of 54.3%. The remaining activity at 0.00129 µM ([2]; 1 h, TG6-129 log([M]) -8.89, EP4-V320A, read-out: % cAMP activity (normalized to WT)) was 60.2%, the “TG6-129 cAMP activity (∆pIC50 from EP4 WT), Mean” value ([2]; V320A, Mean) was -0.014 and the “TG6-129 cAMP activity (∆pIC50 from EP4 WT)” value ([2]; V320A, single experiments 1st-3rd) was 0.016 and -0.105 and 0.048. For the same molecule, the ΔpIC50 [2, 7] was -0.01 ± 0.04, the IC50 [3] was 603 nM and the “TG6-129 cAMP activity (∆pIC50 from EP2 WT), Mean” value ([3]; S86A, Mean) was -0.670. The “TG6-129 cAMP activity (∆pIC50 from EP2 WT)” value ([3]; S86A, single experiments 1st-3rd) was -0.744 and -0.540 and -0.726, the ΔpIC50 [3, 7] was -0.67 ± 0.07 and the IC50 [4] was 3630 nM. For the same molecule, the remaining activity at 0.1 µM ([4]; 1 h, TG6-129 log([M]) -7, EP2-W186A, read-out: % cAMP activity (normalized to WT)) was 91.6%, the remaining activity at 0.0001 µM ([4]; 1 h, TG6-129 log([M]) -10, EP2-W186A, read-out: % cAMP activity (normalized to WT)) was 92.4% and the remaining activity at 10 pM ([4]; 1 h, TG6-129 log([M]) -11, EP2-W186A, read-out: % cAMP activity (normalized to WT)) was 99.9%. The remaining activity at 1 pM ([4]; 1 h, TG6-129 log([M]) -12, EP2-W186A, read-out: % cAMP activity (normalized to WT)) was 97.8%, the “TG6-129 cAMP activity (∆pIC50 from EP2 WT), Mean” value ([4]; W186A, Mean) was -1.465 and the ΔpIC50 [4, 7] was -1.47 ± 0.16. For the same molecule, the IC50 [5] was 219 nM, the “TG6-129 cAMP activity (∆pIC50 from EP2 WT), Mean” value ([5]; T82A, Mean) was -0.316 and the “TG6-129 cAMP activity (∆pIC50 from EP2 WT)” value ([5]; T82A, single experiments 1st-3rd) was -0.298 and -0.466 and -0.185.
